Test results: patent publication US7285547B2, “Amidinophenylalanine derivatives as thrombin inhibitors” (LEK Pharmaceuticals d.d., priority 2000, dated 2007)

Experiments:
[1] = target: trypsin / thrombin; assay: Selectivity to thrombin (ratio of Ki for trypsin to Ki for thrombin); type: biochemical
Protocol: 3. Selectivity to Thrombin
By the use of other serine protease like trypsin with the appropriate chromogenic substrate, selectivity of inhibitors with respect to thrombin was determined. Selectivity of an inhibitor is expressed as a ratio of Ki for trypsin to Ki for thrombin.

[2] = target: T1, trypsin (UniProt P00760); assay: Determination of trypsin Ki (chromogenic substrate S-2222); type: biochemical; settings: S-2222, 25° C.
T1 construct: Trypsin (6000 E/mg prot; Sigma): dissolved in distilled water to give a stock solution of 300 E/mL
T1 sequence (P00760 1-246): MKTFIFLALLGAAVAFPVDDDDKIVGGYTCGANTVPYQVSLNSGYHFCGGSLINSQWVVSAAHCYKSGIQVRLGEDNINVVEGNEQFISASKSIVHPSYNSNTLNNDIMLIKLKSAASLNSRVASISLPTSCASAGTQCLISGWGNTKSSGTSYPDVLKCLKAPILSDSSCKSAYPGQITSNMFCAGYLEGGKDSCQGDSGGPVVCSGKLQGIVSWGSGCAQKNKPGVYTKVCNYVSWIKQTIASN
Protocol: (§1) The enzyme inhibitory effect of the compounds can be identified by determination of inhibition constant Ki. It denotes the degree of dissociation of the enzyme-inhibitor complex. Low dissociation constant means high potency of inhibitor. Ki can be determined during reaction of the enzyme with a specific chromogenic substrate which under hydrolysis by the enzyme develops color. Reaction in time is recorded by spectrophotometry and Ki is calculated from kinetic parameters (Vmax, Km, reaction rate).
2. Determination of Trypsin Ki
The ability of a compound to act as an inhibitor of trypsin catalytic activity was assessed by determination of Ki.
50 μL of buffer, 50 μL of test compound in water (final concentrations from 50 to 300 μM) and 50 μL of trypsin (3 mE/mL f.c.) were incubated for 15 minutes at room temperature.
(§2) Trypsin activity was determined from the change in absorbance in the linear part of velocity graph. […] The Km for the substrate was determined under test conditions with at least 6 substrate concentrations varying around Km and calculated with the non-linear regression program Curve expert.

[3] = target: T2, human thrombin (Homo sapiens, UniProt P00734); assay: Determination of thrombin Ki (chromogenic substrate S-2238); type: biochemical
T2 construct: Human thrombin (308 NIH; Sigma); purchased Sigma
Protocol: as §1
1. Determination of Thrombin Ki
The ability of a compound to act as an inhibitor of human thrombin catalytic activity was assessed by determination of Ki.
A mixture of 50 μL of buffer, 50 μL of inhibitor in water (final concentrations from 10 to 100 μM) and 50 μL of thrombin (0.5 NIH U/mL f.c.) was incubated for 15 minutes at room temperature.
as §2, with “Thrombin” for “Trypsin”, “of the” for “of”, “under the” for “under”, “programme” for “program”

[4] = test system: normal pooled human plasma; assay: Thrombin time (TT) coagulation assay; type: biochemical; settings: concentration of inhibitor that doubled the clotting time
Protocol: (§3) The Anticoagulant effect of thrombin inhibitors was measured by thrombin time (TT), activated partial thromboplastin time (aPTT), and prothrombin time (PT) assays. Inhibitors were added to normal pooled human plasma over a range of concentrations and clotting was recorded in an automated coagulometer (Fibrintimer, Dade/Behring). The concentration of inhibitor that doubled the clotting time was determined for each assay.
In a plasma sample thrombin converts fibrinogen into fibrin and the clot is formed. The time for clot formation was measured. Thrombin time is prolonged due to disorders in fibrin polymerisation or due to the presence of thrombin inhibitors.
b) Reagents • Thrombin (Test Thrombin Reagent, 1.5 IU/mL, Dade/Behring): lyophilized bovine thrombin was dissolved in 5 mL of HEPES (25 mmol/L, pH 7.4). The reagent was warmed to 37° C. prior to the assay. • Normal pooled plasma: venous blood from 11 apparently healthy volunteers was collected (1 part 0.11 mol/L sodium citrate solution with 9 parts of blood) and centrifuged immediately at 2000×g for 30 minutes at 4° C. […]
Inhibitors (10 μL working solution, concentrations from 2.5 μM to 100 μM) and pooled plasma (90 μL) were incubated at 37° C. for 5 minutes and then thrombin (200 μL) was added. Clot formation was measured in a coagulometer in duplicate.

[5] = test system: normal pooled human plasma; assay: Prothrombin time (PT) coagulation assay; type: biochemical; settings: concentration of inhibitor that doubled the clotting time
Protocol: as §3
An optimal amount of thromboplastin and calcium are added to plasma sample and the time of fibrin clot formation wass measured. PT is a rapid, sensitive screening test for coagulation disorders of the extrinsic pathway. It is well suited for the induction and monitoring of oral anticoagulant therapy, for diagnosing genetic or acquired deficiencies in coagulation factors and checking the synthesis performance of the liver in hepatic diseases. PT is prolonged due to extrinsic coagulation factors deficit or due to the presence of inhibitors.
b) Reagents • Thromboplastin (Thromborel S, Dade/Behring): was dissolved in 4 mL of distilled water. […]
Inhibitor (10 μL working solution, concentrations from 5 μM to 100 μM) and pooled plasma (90 μL) were incubated at 37° C. for 5 minutes and then Thromborel S (200 μL) was added. Clot formation was measured with a coagulometer in duplicate.

[6] = test system: normal pooled human plasma; assay: Activated partial thromboplastin time (aPTT) coagulation assay; type: biochemical; settings: concentration of inhibitor that doubled the clotting time
Protocol: as §3
2. Activated Partial Thromboplastin Time (aPTT)
Incubation of plasma with the optimal quantity of phospholipids and a surface activator leads to activation of factors of the intrinsic coagulation pathway. The addition of calcium ions triggers the coagulation process. The time of fibrin clot formation wass measured. aPTT was used as a screening test for coagulation disorders of the intrinsic coagulation pathway. It is prolonged due to intrinsic coagulation factors deficit or due to the presence of inhibitors.
b) Reagents • Pathromtin SL (Dade/Behring): silicon dioxide particles, vegetable phospholipids, sodium chloride (2.4 g/L), Hepes (14.3 g/L, pH 7.6), sodium azide (<1 g/L). […]
Inhibitor (10 μL working solution, concentrations from 5 μM to 100 μM) and pooled plasma (90 μL) were incubated at 37° C. for 5 minutes. […] The addition of calcium chloride (100 μL) triggered the coagulation process and clot formation was detected with a coagulometer in duplicate.

[7] = test system: thrombus formation in a venous thrombosis model in the rat; assay: Stasis-induced thrombosis (venous thrombosis model); type: in vivo; settings: iv, i.v. 5 min before thrombosis induction, tissue factor plus stasis, read-out: Stasis-induced thrombosis (ED50 ± SD)
Protocol: 1. Stasis-Induced Thrombosis
Using a combination of thrombogenic challenge (0.045 ng/kg of tissue factor) and stasis, compounds were tested for their abillity to affect thrombus formation in a venous thrombosis model in the rat.
Thrombus formation by a combination of stasis and hypercoagulability was induced as described by Vogel et al. (Thromb. Res., 1989, 54, 399410). Male sprague-Dawley rats (250-300 g) were anaesthetized with sodium pentobarbitone (30 mg/kg, i.p.). The abdomen of the animals was surgically opened and after careful dissection, the vena cava was exposed and dissected free from surrounding tissue. Saline, or the various compounds were administered i.v. 5 min before thrombosis induction. […] Human tissue factor (0.045 ng/kg, i.v.) was injected into the dorsal vein of the penis. Ten seconds after the end of the injection, stasis were established by tightening the […] the proximal and then the distal. The abdominal cavity was provisionally closed and stasis was maintained for 20 minutes. The cavity was then reopened, the ligated segment was opened longitudinally and the thrombus formed was removed, rinsed, blotted on filter paper, dried overnight at 60° C. and weighed. Under these experimental conditions, control thrombus weight was 5.5±0.1 mg (n=15).

[8] = test system: transection of the tail of rats; assay: Bleeding time (transection of the tail); type: in vivo; settings: rat tail transection, 1 mg/kg i.v. 5 min before transection
Protocol: The hemorrhagic risk associated to a treatment with selected compounds were determined using an experimental model of bleeding: transection of the tail of rats.
Bleeding time was determined by transection of the tail, 2 mm from the tip, of […] rats (30 mg/kg i.p.). The compounds were injected i.v. at the indicated doses 5 min before tail transection. Blood was carefully blotted every 15 s on a filter paper. Haemostasis was considered to be achieved when no more blood stain was observed over 1 min.

[9] = text comparison of SI 20025 compound with compound of the present invention

SMILES	melting point [°C]	Ki [2] [nM]	Ki ([3]; human thrombin, S-2238, 25° C.) [nM]	further results
CC1CCN(C(=O)N(Cc2cccc(C(=N)NO)c2)NS(=O)(=O)c2ccc3ccccc3c2)CC1	–	> 68300	469	Ki trypsin/Ki thrombin [1]: 146
CC1CCN(C(=O)N(Cc2cccc(C(=N)N)c2)NS(=O)(=O)c2ccc3ccccc3c2)CC1	–	112	4	–
COc1ccc2cc(S(=O)(=O)NN(Cc3cccc(C(=N)N)c3)C(=O)N3CCC(C)CC3)ccc2c1	–	–	11	TT [4]: 2.0 µM; PT [5]: 2.7 µM; aPTT [6]: 2.1 µM
CC1CCCCN1C(=O)N(Cc1cccc(/C(N)=N/O)c1)NS(=O)(=O)c1ccc2ccccc2c1 (stereo not shown) [Example 13, N′-hydroxy-3-{[1-[(2-methyl-1-piperidinyl)carbonyl]-2-(2-naphthylsulfonyl)hydrazino]methyl}benzenecarboximidamide]	101 to 103	–	–	–
COc1ccc2cc(S(=O)(=O)NN(Cc3cccc(/C(N)=N/O)c3)C(=O)N3CCCCC3C)ccc2c1 (stereo not shown) [Example 15, N′-Hydroxy-3-({2-[(6-methoxy-2-naphthyl)sulfonyl]-1-[(2-methyl-1-piperidinyl)carbonyl]hydrazino}methyl)benzenecarboximidamide]	172 to 175	–	–	–
COc1ccc2cc(S(=O)(=O)NN(Cc3cccc(/C(N)=N/O)c3)C(=O)N3CCC(C)CC3)ccc2c1 [Example 17, N′-Hydroxy-3-({2-[(6-methoxy-2-naphthyl)sulfonyl]-1-[(4-methyl-1-piperidinyl)carbonyl]hydrazino}methyl)benzenecarboximidamide]	154 to 156	–	–	–
N=C(N)c1ccc(CN(NS(=O)(=O)c2ccc3ccccc3c2)C(=O)N2CCCCCC2)cc1 [compound a, reference compound]	–	–	–	Ki [3, 9]: 32 nM
N=C(N)Cc1ccc(CN(NS(=O)(=O)c2ccc3ccccc3c2)C(=O)N2CCCCCC2)cc1 [compound b]	–	–	–	Ki [3, 9]: 5 nM
N/C(=N\O)c1cccc(CN(NS(=O)(=O)c2ccc3ccccc3c2)C(=O)N2CCCCCC2)c1 [drawing 45]	–	32200	594	Ki trypsin/Ki thrombin [1]: 54
N/C(=N\O)c1cccc(CN(NS(=O)(=O)c2ccc3ccccc3c2)C(=O)N2CCCCCC2)c1 [drawing 49]	–	–	–	ED50 [7]: 0.29 ± 0.011 mg/kg; Bleeding (fold increase at 1 mg/kg) [8]: 3.3 fold increase
N=C(N)c1cccc(CN(NS(=O)(=O)c2ccc3ccccc3c2)C(=O)N2CCCCCC2)c1 [drawing 50]	–	–	–	ED50 [7]: 0.07 ± 0.005 mg/kg

The next lines start with results.

melting point [°C]	Ki [2] [nM]	Ki ([3]; human thrombin, S-2238, 25° C.) [nM]	SMILES	further results
151 to 154	–	–	COc1ccc2cc(S(=O)(=O)NN(Cc3cccc(C(=N)N)c3)C(=O)N3CCC(C)CC3)ccc2c1.Cl	–
151 to 154	–	–	Cl.N=C(N)c1cccc(CN(NS(=O)(=O)c2ccc3ccccc3c2)C(=O)N2CCCCCC2)c1	–
151 to 154	–	–	COc1ccc2cc(S(=O)(=O)NN(Cc3cccc(C(=N)N)c3)C(=O)N3CCCCCC3)ccc2c1.Cl	–
–	17900	–	COc1ccc2cc(S(=O)(=O)NN(Cc3cccc(C(=N)NO)c3)C(=O)N3CCCCCC3)ccc2c1	Ki trypsin/Ki thrombin [1]: 29
–	53	9	COc1ccc2cc(S(=O)(=O)NN(Cc3cccc(C(=N)N)c3)C(=O)N3CCCCCC3)ccc2c1	Ki trypsin/Ki thrombin [1]: 5.84
173 to 175	–	–	COc1ccc2cc(S(=O)(=O)NN(Cc3cccc(/C(N)=N/O)c3)C(=O)N3CCCCCC3)ccc2c1 [Example 23, 3-({1-(1-Azepanylcarbonyl)-2-[(6-methoxy-2-naphthyl)sulfonyl]hydrazino}methyl)-N′-hydroxybenzenecarboximidamide]	–
–	143	5	N=C(N)c1cccc(CN(NS(=O)(=O)c2ccc3ccccc3c2)C(=O)N2CCCCCC2)c1 [drawing 46]	–
